# Reference: patent US11053204B2, “Pyrimidinyloxy benzene derivatives as herbicides” (FMC Corporation, priority 2015, dated 2021)
# Experiments:
# Format in all cases: in vivo
# [1] = system: pigweed (Amaranthus retroflexus); assay: Test C preemergence, plant response rating; conditions: scale 0 to 100; for Plant response rating, Pigweed: Preemergence; for Pigweed plant response rating: preemergence
# [2] = system: Italian ryegrass (Lolium multiflorum); assay: Test A postemergence, visual injury rating; conditions: Lolium multiflorum, post-emergence, 240 h, 0 is no effect, 100 is complete control, read-out: Ryegrass, Italian plant response rating (0 to 100 scale)
# Summary of the method: (§1)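 Visual injury scored 0–100 (100 = complete control) against untreated controls about 10 days after treatment in a greenhouse. Test chemicals, formulated with surfactant in non-phytotoxic solvent, were sprayed on soil preemergence or on 2-10 cm, one- to two-leaf plants postemergence.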
# [3] = system: barnyardgrass (Echinochloa crus-galli); assay: Test A postemergence, visual injury rating; conditions: Echinochloa crus-galli, post-emergence, 240 h, 0 is no effect, 100 is complete control, read-out: Barnyardgrass plant response rating (0 to 100 scale)
# Summary of the method: as §1
# [4] = system: giant foxtail (Setaria faberii); assay: Test A postemergence, visual injury rating; conditions: Setaria faberi, post-emergence, 240 h, 0 is no effect, 100 is complete control, read-out: Foxtail, Giant plant response rating (0 to 100 scale)
# Summary of the method: as §1
# [5] = system: galium (catchweed bedstraw, Galium aparine); assay: Test A postemergence, visual injury rating; conditions: Galium, post-emergence, 240 h, 0 is no effect, 100 is complete control, read-out: Galium plant response rating (0 to 100 scale)
# Summary of the method: as §1
# [6] = system: pigweed (Amaranthus retroflexus); assay: Test A postemergence, visual injury rating; conditions: Amaranthus retroflexus, post-emergence, 240 h, 0 is no effect, 100 is complete control, read-out: Pigweed plant response rating (0 to 100 scale)
# Summary of the method: as §1
# [7] = system: ragweed (common ragweed, Ambrosia elatior); assay: Test A postemergence, visual injury rating; conditions: Ambrosia artemisiifolia, post-emergence, 240 h, 0 is no effect, 100 is complete control, read-out: Ragweed plant response rating (0 to 100 scale)
# Summary of the method: as §1
# corn (Zea mays) = assay: Test A postemergence, visual injury rating; conditions: Zea mays, post-emergence, 240 h, 0 is no effect, 100 is complete control, read-out: Corn plant response rating (0 to 100 scale)
# Summary of the method: as §1
# [8] = system: blackgrass (Alopecurus myosuroides); assay: Test A postemergence, visual injury rating; conditions: Alopecurus myosuroides, post-emergence, 240 h, 0 is no effect, 100 is complete control, read-out: Blackgrass plant response rating (0 to 100 scale)
# Summary of the method: as §1
# [9] = system: wheat (Triticum aestivum); assay: Test A postemergence, visual injury rating; conditions: Triticum aestivum, post-emergence, 240 h, 0 is no effect, 100 is complete control, read-out: Wheat plant response rating (0 to 100 scale)
# Summary of the method: as §1
# kochia (Kochia scoparia) [10] = assay: Test A postemergence, visual injury rating; conditions: Bassia scoparia, post-emergence, 240 h, 0 is no effect, 100 is complete control, read-out: Kochia plant response rating (0 to 100 scale)
# Summary of the method: as §1
# [11] = system: Italian ryegrass (Lolium multiflorum); assay: Test A preemergence, visual injury rating; conditions: Lolium multiflorum, pre-emergence, 240 h, 0 to 100 scale (0 no effect, 100 complete control), read-out: Ryegrass, Italian plant response rating
# Summary of the method: as §1
# [12] = system: barnyardgrass (Echinochloa crus-galli); assay: Test A preemergence, visual injury rating; conditions: Echinochloa crus-galli, pre-emergence, 240 h, 0 to 100 scale (0 no effect, 100 complete control), read-out: Barnyardgrass plant response rating
# Summary of the method: as §1
# [13] = system: giant foxtail (Setaria faberii); assay: Test A preemergence, visual injury rating; conditions: Setaria faberi, pre-emergence, 240 h, 0 to 100 scale (0 no effect, 100 complete control), read-out: Foxtail, Giant plant response rating
# Summary of the method: as §1
# [14] = system: pigweed (Amaranthus retroflexus); assay: Test A preemergence, visual injury rating; conditions: Amaranthus retroflexus, pre-emergence, 240 h, 0 to 100 scale (0 no effect, 100 complete control), read-out: Pigweed plant response rating
# Summary of the method: as §1
# [15] = system: ragweed (common ragweed, Ambrosia elatior); assay: Test A preemergence, visual injury rating; conditions: Ambrosia artemisiifolia, pre-emergence, 240 h, 0 to 100 scale (0 no effect, 100 complete control), read-out: Ragweed plant response rating
# Summary of the method: as §1
# kochia (Kochia scoparia) [16] = assay: Test A preemergence, visual injury rating; conditions: Bassia scoparia, pre-emergence, 240 h, 0 to 100 scale (0 no effect, 100 complete control), read-out: Kochia plant response rating
# Summary of the method: as §1
smiles,measurement,setting,value
"CCCOC(=O)c1c(Br)cccc1Oc1ncc(Cl)cn1 [Compound 13, propyl 2-bromo-6-[(5-chloro-2-pyrimidinyl)oxy]benzoate]","Plant response rating, Pigweed",[1]; 16 g ai/ha,5
same,"Plant response rating, Pigweed",[1]; 31 g ai/ha,60
same,Pigweed plant response rating,[1]; 4 g ai/ha,5
same,Pigweed plant response rating,[1]; 8 g ai/ha,10
same,pest or weed control at 125 g/ha,[2]; 125 g ai/ha,0%
same,pest or weed control at 500 g/ha,[2]; 500 g ai/ha,100%
same,pest or weed control at 125 g/ha,[3]; 125 g ai/ha,80%
same,pest or weed control at 500 g/ha,[3]; 500 g ai/ha,100%
same,pest or weed control at 125 g/ha,[4]; 125 g ai/ha,80%
same,pest or weed control at 500 g/ha,[4]; 500 g ai/ha,100%
same,pest or weed control at 125 g/ha,[5]; 125 g ai/ha,100%
same,pest or weed control at 500 g/ha,[5]; 500 g ai/ha,100%
same,pest or weed control at 125 g/ha,[6]; 125 g ai/ha,90%
same,pest or weed control at 500 g/ha,[6]; 500 g ai/ha,100%
same,pest or weed control at 125 g/ha,[7]; 125 g ai/ha,0%
same,pest or weed control at 500 g/ha,[7]; 500 g ai/ha,20%
same,plant injury at 125 g/ha,corn (Zea mays); 125 g ai/ha,30%
same,plant injury at 500 g/ha,corn (Zea mays); 500 g ai/ha,90%
same,pest or weed control at 125 g/ha,[8]; 125 g ai/ha,30%
same,pest or weed control at 500 g/ha,[8]; 500 g ai/ha,70%
same,plant injury at 125 g/ha,[9]; 125 g ai/ha,20%
same,plant injury at 500 g/ha,[9]; 500 g ai/ha,30%
same,pest or weed control at 125 g/ha,kochia (Kochia scoparia) [10]; 125 g ai/ha,100%
same,pest or weed control at 500 g/ha,kochia (Kochia scoparia) [10]; 500 g ai/ha,100%
same,pest or weed control at 125 g/ha,[11]; 125 g ai/ha,10%
same,pest or weed control at 500 g/ha,[11]; 500 g ai/ha,90%
same,pest or weed control at 125 g/ha,[12]; 125 g ai/ha,100%
same,pest or weed control at 500 g/ha,[12]; 500 g ai/ha,100%
same,pest or weed control at 125 g/ha,[13]; 125 g ai/ha,100%
same,pest or weed control at 500 g/ha,[13]; 500 g ai/ha,100%
same,pest or weed control at 125 g/ha,[14]; 125 g ai/ha,100%
same,pest or weed control at 500 g/ha,[14]; 500 g ai/ha,100%
same,pest or weed control at 125 g/ha,[15]; 125 g ai/ha,0%
same,pest or weed control at 500 g/ha,[15]; 500 g ai/ha,0%
same,pest or weed control at 125 g/ha,kochia (Kochia scoparia) [16]; 125 g ai/ha,90%
same,pest or weed control at 500 g/ha,kochia (Kochia scoparia) [16]; 500 g ai/ha,100%
